Data from US20110082101A1, “COMBINATIONS COMPRISING EPOTHILONES AND ANTI-METABOLITES” (priority 2002, published 2011).

Tests used:
advanced renal cancer = assay: Treatment of a human patient having advanced renal cancer with epothilone B plus capecitabine; type: in vivo; conditions: Example 1, one human patient, combination: epothilone B 0.5 mg/m^2 five minutes bolus infusion weekly for 3 weeks, one week off, plus capecitabine orally 1250 mg/m^2 twice daily for two weeks, cycle repeated several times
Procedure: A human patient having advanced renal cancer receives 0.5 mg/m^2 of epothilone B as a five minutes bolus infusion weekly for 3 weeks followed by one week off. Starting in the second week of the epothilone treatment and at least two hours after said treatment, capecitabine is applied orally to said patient twice daily at a dosage of 1250 mg/m^2 for two weeks followed by one week off. The whole treatment cycle is applied to the patient several times. Stable disease is observed for about 8 months.

advanced colon cancer = assay: Treatment of a human patient having advanced colon cancer with epothilone B plus gemcitabine hydrochloride; type: in vivo; conditions: Example 5, one human patient, combination: epothilone B 0.5 mg/m^2 five minutes bolus infusion weekly for 3 weeks, one week off, plus gemcitabine hydrochloride 800 mg/m^2 twice daily, cycle repeated several times
Procedure: A human patient having advanced colon cancer receives 0.5 mg/m^2 of epothilone B as a five minutes bolus infusion weekly for 3 weeks followed by one week off. Immediately following said treatment, gemcitabine hydrochloride is applied orally to said patient twice daily at a dosage of 800 mg/m^2. The whole treatment cycle is applied to the patient several times. Stable disease is observed for about […] months.

C/C(=C\c1csc(C)n1)[C@@H]1C[C@@H]2O[C@]2(C)CCC[C@H](C)[C@H](O)[C@@H](C)C(=O)C(C)(C)[C@@H](O)CC(=O)O1 [epothilone B]
Stable disease observed for (duration) (advanced renal cancer): about 8 months | Stable disease observed for (duration) (advanced colon cancer): about 3%
